Results from patent US20050095281A1, “Liposomal formulations and methods of use” (OPTIME Therapeutics, Inc., priority 2003, published 2005).

Columns and labels:
[1] = system: human cervical epithelium; experiment: Histological evaluation of excised human cervical tissue ex vivo (Franz diffusion cell); conditions: 2% polysorbate 80 (data not shown)
Lactobacillus = conditions: previously shown; cited from earlier work

Molecule	histological changes in human cervical epithelium [1]	toxicity of preservatives to Lactobacillus (Lactobacillus)
polysorbate 80	Severe shedding of the epithelial layers	
COC(=O)c1ccc(O)cc1 [methylparaben]		nontoxic
CCCOC(=O)c1ccc(O)cc1 [propylparaben]		nontoxic
